Measurements: patent publication EP1203770A1 (priority 1992, dated 1994)
Where “and” joins values, the source holds several entries; their conditions need not be identical. Equal values may be shown once.

Target: T1, HIV-1 protease (Human immunodeficiency virus type 1 group M subtype B, UniProt P04585)
T1 construct: The protease (or proteinase), consisting of only 99 amino acids, is among the smallest enzymes known
Assay: In vitro HIV protease inhibitory assay (HIV Protease FITC Assay)
Type: biochemical
Conditions: for inhibition at 0.123 µM: HIV-1 Dose 0.123 uM; for inhibition at 0.123 µM / inhibition at 0.37 µM / inhibition at 1.1 µM / inhibition at 3.3 µM / inhibition at 10 µM / inhibition at 30 µM / inhibition at 0.41 µM / inhibition at 1.23 µM / inhibition at 3.7 µM / inhibition at 11 µM / inhibition at 33 µM / inhibition at 100 µM / inhibition at 1 µM: read-out: HIV-1 Protease % Inhib; for inhibition at 0.37 µM: HIV-1 Dose 0.370 uM; for inhibition at 1.1 µM: HIV-1 Dose 1.100 uM; for inhibition at 3.3 µM: HIV-1 Dose 3.300 uM; for inhibition at 30 µM: HIV-1 Dose 30.000 uM; for inhibition at 0.41 µM: HIV-1 Dose 0.410 uM; for inhibition at 1.23 µM: HIV-1 Dose 1.230 uM; for inhibition at 3.7 µM: HIV-1 Dose 3.700 uM; for inhibition at 11 µM: HIV-1 Dose 11.000 uM; for inhibition at 33 µM: HIV-1 Dose 33.000 uM; for Ki: read-out: HIV-1 FITC Ki
In short: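 Percent inhibition was read as fluorescence after avidin-bead capture and filtration separated FITC cleavage product from biotinylated substrate. Enzyme and substrate reacted 1 h, RT, dark, at pH 5.5 (0.1 M sodium acetate, 1.0 M NaCl, 0.05% NP-40).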

Row | Structure (SMILES) | inhibition at 10 µM (HIV-1 Dose 10.000 uM) [%] | inhibition at 100 µM (HIV-1 Dose 100.000 uM) [%] | Ki [nM] | inhibition at 1 µM (HIV-1 Dose 1.000 uM) [%] | other results
1 | CCC(CC1=CCCOC1)c1cc(O)c(C(c2ccccc2)C2CC2)c(=O)o1 (centres unmarked) [Example 76, 3-(Cyclopropyl-phenyl-methyl)-6-[1-(5,6-dihydro-2H-pyran-3-ylmethyl)-propyl]-4-hydroxy-pyran-2-one] | 102 | – | – | – | inhibition at 0.123 µM: 25%; inhibition at 0.37 µM: 54%; inhibition at 1.1 µM: 82.4%; inhibition at 3.3 µM: 98.9%; inhibition at 30 µM: 105%
2 | CCC(c1ccccc1)c1c(O)c(Br)c(C(CC2CC2)CC2CC2)oc1=O (centres unmarked) [Example 77] | – | 110 | 75 | – | inhibition at 0.41 µM: 69.4%; inhibition at 1.23 µM: 86.9%; inhibition at 3.7 µM: 101%; inhibition at 11 µM: 109%; inhibition at 33 µM: 108%
3 | CCCc1oc(=O)c(C(c2ccccc2)C2CC2)c(O)c1CCOCCOC (centres unmarked) [Example 78, 3-(Cyclopropyl-phenyl-methyl)-4-hydroxy-5-[2-(2-methoxy-ethoxy)-ethyl]-6-propyl-pyran-2-one] | – | 106 | 196 | – | inhibition at 0.41 µM: 50.5%; inhibition at 1.23 µM: 68.9%; inhibition at 3.7 µM: 93.2%; inhibition at 11 µM: 101%; inhibition at 33 µM: 107%
4 | O=c1oc(C(CC2CC2)CC2CC2)cc(O)c1C(Cc1ccccc1)Cc1ccccc1 [Example 79, 3-(1-Benzyl-2-phenyl-ethyl)-6-(2-cyclopropyl-1-cyclopropylmethyl-ethyl)-4-hydroxy-pyran-2-one] | 122 | – | 33 | – | inhibition at 0.123 µM: 39.9%; inhibition at 0.37 µM: 76.7%; inhibition at 1.1 µM: 106%; inhibition at 3.3 µM: 111%; inhibition at 30 µM: 117%
5 | CC(C)CC(CC(C)C)c1cc(O)c(C(c2ccccc2)C2CC2)c(=O)o1 (centres unmarked) [Example 80, 3-(Cyclopropyl-phenyl-methyl)-4-hydroxy-6-(1-isobutyl-3-methyl-butyl)-pyran-2-one] | 78.9 | 102 | – | 50.5 | –
6 | O=c1oc(C(CC2CC2)CC2CC2)cc(O)c1C(c1ccccc1)C1CC1 (centres unmarked) [Example 81] | – | – | 31 | – | HIV-1 Protease % Inhib (HIV-1 Dose 1.000 uM): 41.76%; HIV-1 Protease % Inhib (HIV-1 Dose 10.000 uM): 76.98%; HIV-1 Protease % Inhib (HIV-1 Dose 100.000 uM): 83.48% and 83.5%; HIV-1 Protease % Inhib (dose not given): <10%
7 | O=c1oc(CCc2ccccc2)cc(O)c1C(C1CC1)C1CC1 [Example 82, 3-Dicyclopropylmethyl-4-hydroxy-6-phenethyl-pyran-2-one] | 90.9 | 106 | – | 19.8 | –
8 | CC(c1cc(O)c(C(C2CC2)C2CC2)c(=O)o1)C1CC1 (centres unmarked) [Example 83, 6-(1-Cyclopropyl-ethyl)-3-dicyclopropylmethyl-4-hydroxy-pyran-2-one] | 72 | 93.5 | – | 10.5 | –
9 | CC(CC1CC1)(c1cc(O)c(C(C2CC2)C2CC2)c(=O)o1)C1CC1 (centres unmarked) [Example 84, 6-(1-Cyclopropyl-1-cyclopropylmethyl-ethyl)-3-dicyclopropylmethyl-4-hydroxy-pyran-2-one] | 91 | – | – | 54.8 | HIV-1 Protease % Inhib (HIV-1 Dose 100.000 uM): 120.09% and 100%
10 | CCC(CC1CCCCC1)c1cc(O)c(C(c2ccccc2)C2CC2)c(=O)o1 (centres unmarked) [Example 85, 6-(1-Cyclohexylmethyl-propyl)-3-(cyclopropyl-phenyl-methyl)-4-hydroxy-pyran-2-one] | 77 | 92.1 | – | 11.6 | –
11 | CCC(c1ccccc1)c1c(O)cc(C(CC2CC2)CC2CC2)oc1=O (centres unmarked) [Example 87, 6-(2-Cyclopropyl-1-cyclopropylmethyl-ethyl)-4-hydroxy-3(1-phenyl-propyl)-pyran-2-one] | 83.8 | 90.2 | – | 17.8 | –
12 | O=c1oc(C(Cc2ccccc2)CC2CC2)cc(O)c1C(c1ccccc1)C1CC1 (centres unmarked) [Example 88, 6-(1-Benzyl-2-cyclopropyl-ethyl)-3-(cyclopropyl-phenyl-methyl)-4-hydroxy-pyran-2-one] | 60.8 | 95.1 | – | 46.2 | –
13 | O=c1oc(CCC2CC2)cc(O)c1C(c1ccccc1)C1CC1 (centres unmarked) [Example 89, 6-(2-Cyclopropyl-ethyl)-3-(cyclopropyl-phenyl-methyl)-4-hydroxy-pyran-2-one] | 70 | 84 | – | < 10 | HIV-1 Protease % Inhib (dose not given): <10%
14 | CCC(CC1CC1)c1cc(O)c(C(c2ccccc2)C2CC2)c(=O)o1 (centres unmarked) [Example 90, 6-(1-Cyclopropylmethyl-propyl)-3-(cyclopropyl-phenyl-methyl)-4-hydroxy-pyran-2-one] | 95.1 | 95.9 | – | 61.2 | HIV-1 Protease % Inhib (HIV-1 Dose 100.000 uM): 96%
15 | O=c1oc(CCCCc2ccccc2)cc(O)c1C(c1ccccc1)C1CC1 (centres unmarked) [Example 91, 3-(Cyclopropyl-phenyl-methyl)-4-hydroxy-6-(4-phenyl-butyl)-pyran-2-one] | 27.8 | 62 | – | < 10 | –
16 | O=c1oc(C(CC2CC2)CC2CC2)cc(O)c1C(C1CCCCC1)C1CC1 (centres unmarked) [Example 92, 3-(Cyclohexyl-cyclopropyl-methyl)-6-(2-cyclopropyl-1-cyclopropylmethyl-ethyl)-4-hydroxy-pyran-2-one] | 80.9 | 87.1 | – | 38.3 | –
17 | CCC(CCCc1ccccc1)c1cc(O)c(C(c2ccccc2)C2CC2)c(=O)o1 (centres unmarked) [Example 93, 3-(Cyclopropyl-phenyl-methyl)-6-(1-ethyl-4-phenyl-butyl)-4-hydroxy-pyran-2-one] | 72.6 | 79.3 | – | – | HIV-1 Protease % Inhib (HIV-1 Dose 10.000 uM): 67.65% and 71.27%; HIV-1 Protease % Inhib (HIV-1 Dose 100.000 uM): 59.48% and 67.68%; HIV-1 Protease % Inhib (dose not given): <10%
18 | O=c1oc(CCCC2CCCCC2)cc(O)c1C(c1ccccc1)C1CC1 (centres unmarked) [Example 94, 6-(3-Cyclohexyl-propyl)-3-(cyclopropyl-phenyl-methyl)-4-hydroxy-pyran-2-one] | 25 | 52.4 | – | < 10 | –
19 | CCC(CCC1CCCCC1)c1cc(O)c(C(c2ccccc2)C2CC2)c(=O)o1 (centres unmarked) [Example 95, 6-(3-Cyclohexyl-1-ethyl-propyl)-3-(cyclopropyl-phenyl-methyl)-4-hydroxy-pyran-2-one] | 33.6 | 41 | – | < 10 | –
20 | CCC(c1ccccc1)c1c(O)cc(CCC2CC2)oc1=O (centres unmarked) [Example 96, 6-(2-Cyclopropyl-ethyl)-4-hydroxy-3-(1-phenyl-propyl)-pyran-2-one] | 77 | 90.5 | 1400 | 27.9 | –
21 | C=CCC(CC=C)c1cc(O)c(C(c2ccccc2)C2CC2)c(=O)o1 (centres unmarked) [Example 97, 6-(1-Allyl-but-3-enyl)-3-(cyclopropyl-phenyl-methyl)-4-hydroxy-pyran-2-one] | 99.6 | 110 | 100 | 75.9 | –
22 | C=CCCc1cc(O)c(C(c2ccccc2)C2CC2)c(=O)o1 (centres unmarked) [Example 98, 6-But-3-enyl-3-(cyclopropyl-phenyl-methyl)-4-hydroxy-pyran-2-one] | 93.5 | 110 | – | 50.8 | –
23 | CCC(CCc1ccccc1)c1cc(O)c(C(c2ccccc2)C2CC2)c(=O)o1 (centres unmarked) [Example 99, 3-(Cyclopropyl-phenyl-methyl)-6-(1-ethyl-3-phenyl-propyl)-4-hydroxy-pyran-2-one] | 99.6 | 90.7 | – | 71.5 | –
24 | CCC(c1ccccc1)c1c(O)c(Br)c(CCC2CC2)oc1=O (centres unmarked) [Example 100, 5-Bromo-6-(2-cyclopropyl-ethyl)-4-hydroxy-3-(1-phenyl-propyl)-pyran-2-one] | 94.6 | 104 | 480 | 38.3 | –
25 | CCC(c1ccccc1)c1c(O)cc(C(Cc2ccccc2)Cc2ccccc2)oc1=O (centres unmarked) [Example 101, 6-(1-Benzyl-2-phenyl-ethyl)-4-hydroxy-3-(1-phenyl-propyl)-pyran-2-one] | 78.8 | 97.9 | – | 52.2 | –
26 | COCCOCCCc1cc(O)c(C(c2ccccc2)C2CC2)c(=O)o1 (centres unmarked) [Example 102, 3-(Cyclopropyl-phenyl-methyl)-4-hydroxy-6-(3-(2-methoxy-ethoxy)-propyl)-pyran-2-one] | 62.2 | 105 | 1520 | 33.8 | –
27 | COCCOCCCc1oc(=O)c(C(c2ccccc2)C2CC2)c(O)c1CCOCCOC (centres unmarked) [Example 103] | 31.3 | 83 | – | 26.6 | –
28 | CCCc1cc(O)c(C(c2ccccc2)C2CC2)c(=O)o1 (centres unmarked) [Example 104, 3-(Cyclopropyl-phenyl-methyl)-4-hydroxy-6-propyl-pyran-2-one] | 73.2 | 87.3 | – | 50 | –
29 | CCC(c1ccccc1)c1c(O)c(Br)c(CCc2ccccc2)oc1=O (centres unmarked) [Example 105, 5-Bromo-4-hydroxy-6-phenylethyl-3(1-phenyl-propyl)-pyran-2-one] | – | 108 | 458 | – | inhibition at 0.41 µM: 14.3%; inhibition at 1.23 µM: 38.9%; inhibition at 3.7 µM: 75.3%; inhibition at 11 µM: 103%; inhibition at 33 µM: 110%
